US6896900B2, “β-L-2'-deoxy-nucleosides for the treatment of HIV infection” (Emory University, priority 1998, dated 2005)
pEC50, pIC50: −log10 of the molar value.

Legend:
[1] = Cytotoxicity in CEM cells; format: cell-based; conditions: human
HIV = experiment: Anti-HIV activity in CEM cells; format: cell-based; conditions: for pEC50: Human immunodeficiency virus 1, CCRF-CEM, read-out: Antiviral Activity EC50
Method: (§1) The anti-HIV activity of L-2′-A-5-FddC and L-3′-A-5-FddC was tested in CEM and PBM cells.

HIV-1 (strain LAV) = experiment: Inhibition of HIV-1 replication in human PBM cells (reverse transcriptase readout); format: cell-based; conditions: for pEC50: Human immunodeficiency virus 1, PBMC, 144 h, HIV-1 strain LAV, day 6, read-out: Antiviral Activity EC50
Method: Antiviral compositions can be screened in vitro for inhibition of HIV by various experimental techniques. One such technique involves measuring the inhibition of viral replication in human peripheral blood mononuclear (PBM) cells. The amount of virus produced is determined by measuring the quantity of virus-coded reverse transcriptase (RT), an enzyme found in retroviruses, that is present in the cell culture medium.
Three-day-old phytohemagglutinin-stimulated PBM cells (10^6 cells/ml) from hepatitis B and HIV-1 seronegative healthy donors were infected with HIV-1 (strain LAV) at a concentration of about 100 times the 50% tissue culture infectious done (TICD 50) per ml and cultured in the presence and absence of various concentrations of antiviral compounds.
Approximately one hour after infection, the medium, with the compound to be tested (2 times the final concentration in medium) or without compound, was added to the flasks (5 ml; final volume 10 ml). AZT was used as a positive control. The cells were exposed to the virus (about 2×10^5 dpm/ml, as determined by reverse transcriptase assay ) and then placed in a CO2 incubator. HIV-1 (strain LAV) was obtained from the Centers for Disease Control, Atlanta, Ga. The methods used for culturing the PBM cells, harvesting the virus and determining the reverse transcriptase activity were those described by McDougal et al. (J. Immun. Meth. 76, 171-183, 1985) and Spira et al., (J. Clin. Meth. 25, 97-99, 1987), except that fungizone was not included in the medium (see Schinazi, et al., Antimicrob. Agents Chemother. 32, 1784-1787 (1988); Antimicrob. Agents Chemother., 34: 1061-1067 (1990)).
On day 6, the cells and supernatant were transferred to a 15 ml tube and centrifuged at about 900 g for 10 minutes. Five ml of supernatant were removed and the virus was concentrated by centrifugation at 40,000 rpm for 30 minutes (Beckman 70.1 Ti rotor). The solubilized virus pellet was processed for determination of the levels of reverse transcriptase. Results are expressed in dpm/ml of sampled supernatant. Virus from smaller volumes of supernatant (1 ml) can also be concentrated by centrifugation prior to solubilization and determination of reverse transcriptase levels.
The median effective (EC50) concentration was determined by the median effect method (Antimicrob. Agents Chemother. 30, 491-498 (1986). Briefly, the percent inhibition of virus, as determined from measurements of reverse transcriptase, is plotted versus the micromolar concentration of compound. The EC50 is the concentration of compound at which ther is a 50% inhibition of viral growth.
as §1

[2] = Cytotoxicity in uninfected human PBM cells (trypan blue cell count); format: cell-based; conditions: mitogen-stimulated uninfected human PBM cells, six days
Method: Mitogen stimulated uninfected human PBM cells (3.8×10^5 cells/ml) were cultured in the presence and absence of drug under similar conditions as those used for the antiviral assay described above. The cells were counted after six days using a hemacytometer and the trypan blue exclusion method, as described by Schinazi et al., Antimicrobial Agents and Chemotherapy, 22(3), 499 (1982). The IC50 is the concentration of compound which inhibits 50% of normal cell growth. The anti-HIV activity of L-2′-A-5-FddC and L-3′-A-5-FddC was tested in CEM and PBM cells.

pEC50 (HIV) | pEC50 (HIV-1 (strain LAV)) | melting point | Structure (SMILES) | pIC50 [1] | Selectivity Index IC50/EC50 (HIV) | Selectivity Index IC50/EC50 (HIV-1 (strain LAV)) | IC50 at 6 days [2]
5.41 | 6.00 | 219 to 221 °C | [N-]=[N+]=NC1C[C@H](CO)O[C@@H]1n1cc(F)c(N)nc1=O (stereo partly drawn) [L-2′-A-5-FddC, β-L-(2′-azido)-2′,3′-dideoxy-5-fluorocytosine] | < 4.00 | >30 | >100 | > 100000 nM
6.54 | 7.30 | – | [N-]=[N+]=NC1C[C@@H](n2cc(F)c(N)nc2=O)O[C@H]1CO (stereo partly drawn) [L-3′-A-5-FddC, β-L-(3′-azido)-2′,3′-dideoxy-5-fluorocytosine] | < 4.00 | >344 | >2647 | > 100000 nM
